Results from patent US5118705A, “Water soluble salts of purpuromycin and pharmaceutical formulations thereof” (Gruppo Lepetit S.p.A., priority 1990, dated 1992).
Structures can show the parent of a compound that is named as a salt. Where two headings read alike, the source gives them in different places. One block for each molecule: values may come before it.

Columns and labels:
[1] = system: Candida albicans SKF 2270; assay: Activity against Candida strains, two-fold dilution method; format: cell-based; conditions: for MIC: Candida albicans, SKF2270, 20 h
Method: (§1) This set of experiments included also one strain each of two other Candida species, Candida tropicalis and Candida kruzei. The M.I.C. were determined by the two-fold dilution method in buffered (0.01 M phosphate buffer, pH 7.4) yeast nitrogen base medium (Difco) supplemented with 1.5 g/liter asparagine in microtiter trays. Inocula were approximately 10^4 colony forming units/ml. Incubation was for 20 h at 30° C. Purpuromycin was dissolved in DMSO and added to the cultures as above.

[2] = system: Candida albicans ATCC 10231; assay: as above; format: cell-based; conditions: for MIC: Candida albicans, ATCC10231, 20 h
Method: as §1

[3] = system: Propionibacterium acnes ATCC 6919; assay: In vitro activity, M.I.C., microbroth dilution; format: cell-based; conditions: Cutibacterium acnes, ATCC6919; salts calculated as weight of purpuromycin; 37° C., 48 h, anaerobic hood
Method: (§2) MIC were determined by the microbroth dilution test. Bacteria were grown at 37° C., fungi at 30° C. Incubation was for 20 h, except for Propionibacterium acnes, Bacteroides fragilis, Neisseria gonorrhoeae, Haemophilus influenzae (48 h) and Trichophyton mentagrophytes (72h) Neisseria gonorrhoeae and Haemophilus influenzae were incubated in a CO2 -enriched (5%) atmosphere; Propionibacterium acnes and Bacteroides fragilis in an anaerobic hood. Media used were: Oxoid Iso-sensitest broth (Staphylococci, Enterococcus faecalis and Escherichia coli); Difco Todd-Hewitt broth (streptococci); Difco GC base broth with 1% BBL IsoVitaleX (Neisseria gonorrhoeae); Difco Brain-Heart Infusion broth with 1% Difco supplement C (Haemophilus influenzae); Difco Wilkins-Chalgren broth (Propionibacterium acnes and Bacteroides fragilis); Difco Yeast Nitrogen Base broth with 1.5 g/1 asparagine (Candida albicans); Difco Sabouraud-dextrose broth (Trichophyton mentagrophytes). Inocula were approximately 10^4 CFU/ml.

[4] = system: Trichophyton mentagrophytes SKF 17410; assay: In vitro activity, M.I.C., microbroth dilution; format: cell-based; conditions: Trichophyton mentagrophytes, SKF17410; salts calculated as weight of purpuromycin; 30° C., 72 h
Method: as §2

[5] = system: Neisseria gonorrhoeae L 997; assay: In vitro activity, M.I.C., microbroth dilution; format: cell-based; conditions: Neisseria gonorrhoeae, L997; salts calculated as weight of purpuromycin; 37° C., 48 h, 5% CO2
Method: as §2

Strep. pyogenes L49 = assay: In vitro activity, M.I.C., microbroth dilution; format: cell-based; conditions: Streptococcus pyogenes, L49; salts calculated as weight of purpuromycin; 37° C., 20 h
Method: as §2

Staph. aureus Tour L 165 = assay: In vitro activity, M.I.C., microbroth dilution; format: cell-based; conditions: Staphylococcus aureus, TOURL165; salts calculated as weight of purpuromycin; 37° C., 20 h
Method: as §2

[6] = system: Staph. epidermidis ATCC 12228; assay: In vitro activity, M.I.C., microbroth dilution; format: cell-based; conditions: Staphylococcus epidermidis, ATCC12228; salts calculated as weight of purpuromycin; 37° C., 20 h
Method: as §2

[7] = system: Haemophilus influenzae ATCC 19418; assay: In vitro activity, M.I.C., microbroth dilution; format: cell-based; conditions: salts calculated as weight of purpuromycin; 37° C., 48 h, 5% CO2
Method: as §2

[8] = system: Enterococcus faecalis ATCC 7080; assay: In vitro activity, M.I.C., microbroth dilution; format: cell-based; conditions: Enterococcus faecalis, ATCC7080; salts calculated as weight of purpuromycin; 37° C., 20 h
Method: as §2

[9] = system: Candida albicans SKF 2270; assay: In vitro activity, M.I.C., microbroth dilution; format: cell-based; conditions: Candida albicans, SKF2270; salts calculated as weight of purpuromycin; 30° C., 20 h
Method: as §2

[10] = system: Bacteroides fragilis ATCC 23745; assay: In vitro activity, M.I.C., microbroth dilution; format: cell-based; conditions: Bacteroides fragilis, ATCC23745; salts calculated as weight of purpuromycin; 37° C., 48 h, anaerobic hood
Method: as §2

Staph. haemolyticus L602 = assay: In vitro activity, M.I.C., microbroth dilution; format: cell-based; conditions: Staphylococcus haemolyticus, L602; salts calculated as weight of purpuromycin; 37° C., 20 h
Method: as §2

[11] = system: Escherichia coli SKF 12140; assay: In vitro activity, M.I.C., microbroth dilution; format: cell-based; conditions: salts calculated as weight of purpuromycin; 37° C., 20 h
Method: as §2

Strep. pneumoniae L44 = assay: In vitro activity, M.I.C., microbroth dilution; format: cell-based; conditions: salts calculated as weight of purpuromycin; 37° C., 20 h
Method: as §2

[12] = system: Trichomonas vaginalis TVL; assay: In vitro activity, M.I.C., microtiter trays; format: cell-based; conditions: Trichomonas vaginalis; salts calculated as weight of purpuromycin; 48 h, anaerobic hood, 37° C.
Method: MIC were performed in flat-bottomed microtiter trays, with 0.2 ml per well. The medium was TYM modified basal medium (Merck) plus 10% horse serum (treated to inactivate complement). The inoculum was ca. 10^5 organisms/ml; incubation was for 48 h in an anaerobic hood (37° C.).The microtiter wells were read using an inverted light microscope. The MIC was taken as the lowest concentration at which no live (mobile) protozoa were seen.

[13] = Solubility and pH of solution; format: physicochemical
Gardnerella vaginalis = assay: In vitro activity, M.I.C., agar dilution; format: cell-based; conditions: Gardnerella vaginalis; salts calculated as weight of purpuromycin; ATCC 14018 and 10 clinical isolates, all same M.I.C.; inoculum ca. 10^5 CFU, 48 h
Method: **The assay was carried out on strain ATCC 14018 and 10 clinical isolates
Incubation was for 48 h in an anaerobic hood (37° C.); inoculum ca. 10^5 CFU.

[14] = system: Candida albicans strain SKF 2270; assay: Topical antifungal activity in ovariectomized rats (yeast vaginal infection); format: in vivo, rats (Charles River); conditions: twice daily for three days
Method: The effectiveness of the water soluble salts of purpuromycin in the topical treatment of yeast vaginal infection was also tested in ovariectomized rats (Charles River) treated subcutaneously with 4 mg of estradiol benzoate approximately two weeks after ovariectomy. Five days later they were inoculated intravaginally with approximately 5×10^6 colony forming units (CFU) of Candida albicans strain SKF 2270 in 25 microliters of Nutrient Broth (no.2, Oxoid) containing 15% (vol/vol) of glycerol. Topical intravaginal therapy was twice daily for three days, starting one day after infection, with 100 microliters of a water soluble salt of purpuromycin suspension in a mixture of 10:90 DMSO-polyethylene glycol 400, corresponding to 2 or 5 mg/rat/treatment. The day after the last treatment, vaginal smear samples (calibrated 10 microliter loops) were diluted and plated for viable organism counts on Sabouraud agar (Difco). Each group contained 10 animals.

[15] = system: Trichomonas vaginalis strain TVL; assay: Activity against Trichomonas vaginalis, two-fold tube dilution method; format: cell-based; conditions: Trichomonas vaginalis; 48 hours at 37° C.; read-out: MIC
Method: Trichomonas vaginalis (applicant's internal code TVL) was grown on Trichomonas Culture Medium Base (Merck) plus 10% heat treated horse serum. Inoculum: approximately 10^5 organisms/ml. Incubation: 48 hours at 37° C.

[16] = comparative tests, antibacterial agents, read-out: M.I.C.
[17] = comparative tests, antibacterial agents

Molecule: CC[C@H]1OC(=O)[C@H](C)[C@@H](O[C@H]2C[C@@](C)(OC)[C@@H](O)[C@H](C)O2)[C@H](C)[C@@H](O[C@@H]2O[C@H](C)C[C@H](N(C)C)[C@H]2O)[C@](C)(O)C[C@@H](C)C(=O)[C@H](C)[C@@H](O)[C@]1(C)O [erythromycin]
- MIC [1]: > 128 µg/mL
- MIC [2]: > 128 µg/mL

Molecule: COC(=O)c1cc2cc3c(c(O)c2c(=O)o1)OC1(Cc2c(O)c4c(c(O)c2O1)C(=O)C(OC)=CC4=O)CC3O [Purpuromycin salt with L-lysine (1:1.5), Salt of purpuromycin with L-lysine]
- MIC [3]: 0.06 µg/mL
- MIC [4]: 1 µg/mL
- MIC [5]: 0.06 µg/mL
- MIC (Strep. pyogenes L49): 0.06 µg/mL
- MIC (Staph. aureus Tour L 165): 0.06 µg/mL
- MIC [6]: 0.06 µg/mL
- M.I.C. [7]: 0.13 mg/L
- MIC [8]: 0.06 µg/mL
- MIC [9]: 1 µg/mL
- MIC [10]: 0.13 µg/mL
- MIC (Staph. haemolyticus L602): 0.06 µg/mL
- M.I.C. [11]: 32 mg/L
- M.I.C. (Strep. pneumoniae L44): 0.13 mg/L
- MIC [12]: 4 µg/mL
- pH value of a 0.5% (w/v) solution ([13]; distilled water): 8.5
- solubility in distilled water ([13]; room temperature, calculated as purpuromycin, listed as Example 2): 7400 µg/mL
- MIC (Gardnerella vaginalis): 16 µg/mL
- Mean log10 CFU/smear sample ± SD ([14]; 2 mg/rat/treatment intravaginal, vehicle 3.87 ± 0.50, P < 0.01 vs group 1 controls): 2.60 ± 0.49 log10 CFU/smear sample
- numbers of viable yeasts cell/sample ([14]; topical intravaginal): significantly reduced numbers of viable yeasts cell/sample

- MIC [1, 16]: > 128 µg/mL
- MIC [2, 16]: > 128 µg/mL
Molecule: CO[C@@]1(NC(=O)Cc2cccs2)C(=O)N2C(C(=O)O)=C(COC(N)=O)CS[C@@H]21 [cefoxitin]

Molecule: CC1(C)S[C@@H]2[C@H](NC(=O)Cc3ccccc3)C(=O)N2[C@H]1C(=O)O [penicillin G]
- MIC [1]: > 128 µg/mL
- MIC [2]: > 128 µg/mL

- MIC [1, 16]: > 128 µg/mL
- MIC [2, 16]: > 128 µg/mL
Molecule: O=C(Cc1cccs1)N[C@@H]1C(=O)N2C(C(=O)[O-])=C(C[n+]3ccccc3)CS[C@H]12 [cephaloridine]

- MIC [1, 16]: > 128 µg/mL
- MIC [2, 16]: > 128 µg/mL
Molecule: CC1=C(C(=O)O)N2C(=O)[C@@H](NC(=O)[C@H](N)c3ccccc3)[C@H]2SC1 [cefalexin]

- MIC [15]: > 128 µg/mL
Molecule: CC(=O)N1CCN(c2ccc(OCC3COC(Cn4ccnc4)(c4ccc(Cl)cc4Cl)O3)cc2)CC1 (centres unmarked) [Ketoconazole]

Molecule: gentamicin
- M.I.C. [1, 17]: higher than 128 microgram/ml
- M.I.C. [2, 17]: higher than 128 microgram/ml
